Assay results as given in US20120015925A1, “NOVEL BENZOTHIAZEPINE AND BENZOTHIEPINE COMPOUNDS” (ASAHI KASEI PHARMA CORPORATION, priority 2004, published 2012).

Assays:
[1] = test system: rats fed cholesterol food; experiment: Blood cholesterol lowering effect in rats fed cholesterol food; type: in vivo, rat; settings: oral, twice per day, SD (IGS) male rats, serum 3 hours after final administration
Procedure: In the present Test Example, a blood cholesterol lowering effect on rats fed cholesterol food was evaluated according to the method described in J. Lipid Res., 1995, 36, 1098-1105.
That is, the food containing 0.4% cholesterol and 0.5% bile acid was given to SD (IGS) strain male rats at 7 to 9 weeks of age for 5 days in advance of the test date, to increase blood cholesterol levels. The rats in which the blood cholesterol level had been obviously elevated from the level before loading the cholesterol food were selected as the subjects in the test. Colestimide (brand name: Cholebine 70% granules, supplied from Mitsubishi Tokyo Pharmaceutical Inc.) which is an anion exchange resin drug was suspended in distilled water, and the test compound was dissolved or suspended in distilled water. They were orally administered forcibly twice per day everyday from the starting date (each n=8). The blood was collected from jugular vein 3 hours after the drug administration on the final day of the experiment, and the cholesterol level in serum was measured to examine the effect of the test compound. As a control, another group (n=8) was merely fed cholesterol food, to which distilled water (1 mL/kg) was administered and the same procedure was applied. The total cholesterol value and the HDL cholesterol value were measured using commercially available kits. The value obtained by subtracting the HDL cholesterol value from the total cholesterol value was regarded as an LDL+VLDL cholesterol value.

[2] = test system: rats with partial ligation of the bile duct dosed bile acid; experiment: Model for hepatic disorder associated with cholestasis (partial bile duct ligation model), Protocol A: AST, ALT, ALP; type: in vivo, rat
Text: In the present Test Example, a model for the hepatic disorder caused by partial ligation of the bile duct was employed with reference to Kanno's method (Liver, 43, Suppl(1):A126, 2002).
That is, to the SD (IGS) strain male rats at 7 to 10 weeks of age, the partial ligation of the bile duct was given with opening the abdominal cavity under anesthesia with pentobarbital. Before the operation, the blood was collected from femoral vein, in order to obtain the value before the administration. From the day after the operation, 200 mg/kg of bile acid and the test compound were orally administered forcibly twice per day for 3.5 days (Protocol A). Without giving the partial ligation of the bile duct, 200 mg/kg of bile acid and the test compound were also orally administered forcibly twice per day for 3.5 days (Protocol B). In both cases, the test compound was dissolved or suspended in distilled water or an aqueous solution of 1% HCO 60 (Nippon Chemicals). To the control group, saline was administered. As comparative examples, 25 mg/kg of cholestyramine (supplied from Sigma) or 50 mg/kg of ursodeoxycholic acid (supplied from Mitsubishi Pharma) was administered. For considering the effect of the operation, sham operation (sham group) was performed in some cases. The blood was collected from the abdominal aorta 6 hours after the drug administration on the final day of the experiment. AST (GOT), ALT (GPT) and ALP in the blood were measured using measurement kits (GOT II-HA Test Wako, GPT II-HA Test Wako and Alkaline Phosphor HA Test Wako, all were supplied from Wako Pure Chemical Industries) and using an automatic analyzer (Nitech ANALAYZER SUPER Z818).

male beagle dogs = experiment: Effect of combination with pravastatin on plasma total cholesterol levels in dogs; type: in vivo, dog; settings: for plasma total cholesterol BEFORE TREATMENT: Example compound 3 mg/kg alone group, baseline; for plasma total cholesterol BEFORE TREATMENT / plasma total cholesterol AFTER TREATMENT: N=4, mean±standard error; for plasma total cholesterol AFTER TREATMENT / plasma total cholesterol BEFORE TREATMENT − AFTER TREATMENT / reduction rate with respect to the data before administration (number in parenthesis): Example compound 3 mg/kg alone, oral once daily for 7 days; for plasma total cholesterol BEFORE TREATMENT − AFTER TREATMENT / reduction rate with respect to the data before administration (number in parenthesis): vehicle 1
Text: The effect of the combination of the compounds described in Example with pravastatin (HMG-CoA reductase inhibitor) on plasma cholesterol levels in dogs was examined.
To male beagle dogs (supplied from Kitayama Labes, body weight 9 to 13 kg), usual solid feedstuff (DS-A: Oriental Yeast Co., Ltd.) was given once daily at 13:00 to 14:00. The light was turned on from 7:00 to 19:00 as a light period, and the remaining was defined as a dark period. Water was given ad libitum. In the morning in the week prior to the administration, the blood was collected with heparin from forearm cephalic vein, and plasma was collected by centrifugation. The total cholesterol level of this plasma was measured using the commercially available cholesterol level measurement kit by the enzymatic method (Cholesterol-E Test Wako). The dogs were grouped so that the total cholesterol levels were almost equal. Sodium pravastatin (1 mg/kg, Sankyo) alone or 3 mg/kg of the compound described in each of Examples alone or the combination thereof was orally administered once daily just before feeding for 7 days. Pravastatin was dissolved in distilled water, and the compound described in Example was suspended in 0.5% methylcellulose solution for administration. On the day after the final administration, the blood was collected from the forearm cephalic vein under starving, to which plasma was obtained. The total cholesterol level therein was measured by the same way. As a result, the total cholesterol level in the plasma was reduced by 7 mg/dL (6%) by orally administering 1 mg/kg/day of pravastatin for 7 days. The total cholesterol level in the plasma was reduced by […] (3 to 8%) by orally administering 3 mg/kg/day of the compound described in each of Examples for 7 days. When pravastatin and the compound described in each of Examples were co-administered at this dosages, the total cholesterol in the plasma was reduced by 14 to 24 mg/dL (12 to 20%). The reduction rate of the total cholesterol level was larger in the co-administration with the compound described in Example than in the administration of pravastatin alone, and the augmented effect by the co-administration was observed.

ALANINE TRANSPORTER = experiment: In vitro assay using Cos 7 cells for Na+ dependent amino acid transporter ([3H]-alanine uptake); type: cell-based; settings: [3H]-alanine 8 μM, 37° C., 60 minutes, read-out: IC50 (μM) AGAINST ALANINE TRANSPORTER
Procedure: In the present Test Example, in vitro assays of the compounds using Cos 7 cells for various transporters were performed according to the description in JP-H10-505830 A.
That is, 2.5×10^5 cells/well of Cos 7 cells were seeded in a 24-well plate, and after two days, the cells were washed once with the assay buffer, i.e., Hanks buffer containing 25 mM glucose and 10 mM HEPES (pH 7.4). The assay buffer was then replaced with the assay buffer containing the test compound. [^3H]-alanine (brand name: NET-348, Daiich Pure chemical) or [^3H]-leucine (brand name: NET-460, Daiich Pure chemical) or [^3H]-phenylalanine (brand name: MT903, MORAVEK) or [^3H]-methionine (brand name: MT862, MORAVEK) or [^3H]-lysine (brand name: MT909, MORAVEK) or [^3H]-choline (brand name: TRK593, Amersham Biosciences) at a final concentration of 8 μM was added thereto and incubated at 37° C. for 60 minutes so that they were taken into Cos 7 cells. […] Then the radioactivity was measured using the liquid scintillation counter. The inhibitory rate (%) was calculated from the radioactivity in the control in which no test compound had been used and the radioactivity when the test compound at the certain concentration had been used, and the concentration of the compound which inhibited 50% of the transporter activity was calculated.

[3] = Table 12-2, 1 mg/kg in 1% HCO 60, N=3, mean±standard error, control group 384 ± 156, sham 48 ± 5
[4] = Table 12-2, 1 mg/kg in 1% HCO 60, N=3, mean±standard error, control group 643 ± 125, sham 128 ± 18
[5] = Table 12-2, 1 mg/kg in 1% HCO 60, N=3, mean±standard error, control group 2204 ± 327, sham 630 ± 87

Row | SMILES | LDL + VLDL REDUCTION RATE (%) IN CHOLESTEROL FED RAT MODEL (THERAPEUTIC MODEL) ([1]; 0.3 mg/kg per administration) | ALT [2, 3] | AST [2, 4] | ALP [2, 5] | plasma total cholesterol BEFORE TREATMENT (male beagle dogs) | plasma total cholesterol AFTER TREATMENT (male beagle dogs) | plasma total cholesterol BEFORE TREATMENT − AFTER TREATMENT (male beagle dogs) | reduction rate with respect to the data before administration (number in parenthesis) (male beagle dogs) | LDL + VLDL REDUCTION RATE (%) IN CHOLESTEROL FED RAT MODEL (THERAPEUTIC MODEL) ([1]; 1 mg/kg per administration) | ALT ([2]; Table 11, Protocol A, 0.1 mg/kg oral twice per day for 3.5 days, N=8, mean±standard error, control group 200 ± 81) | AST ([2]; Table 11, Protocol A, 0.1 mg/kg oral twice per day for 3.5 days, N=8, mean±standard error, control group 400 ± 160) | ALP ([2]; Table 11, Protocol A, 0.1 mg/kg oral twice per day for 3.5 days, N=8, mean±standard error, control group 1120 ± 410) | IC50 (ALANINE TRANSPORTER) | ALT ([2]; Table 12-1, Protocol A, 1 mg/kg in 1% HCO 60, N=3, mean±standard error, control group 417 ± 185, sham 43 ± 1) | AST ([2]; Table 12-1, Protocol A, 1 mg/kg in 1% HCO 60, N=3, mean±standard error, control group 589 ± 221, sham 141 ± 26) | ALP ([2]; Table 12-1, Protocol A, 1 mg/kg in 1% HCO 60, N=3, mean±standard error, control group 2318 ± 583, sham 665 ± 94)
1 | CCCCC1(CCCC)CS(=O)(=O)c2ccc(N(C)C)cc2C(c2cccc(NC(=S)Nc3ccc(C[n+]4ccc(C(C)(C)C)cc4)cc3)c2)N1.[Br-] (stereo not shown) [EXAMPLE 3713] | 41% | 163 ± 96 IU/L | 280 ± 61 IU/L | 1008 ± 289 IU/L | 117 ± 4 mg/dL | 113 ± 3 mg/dL | 4 mg/dL | 3 | – | – | – | – | – | – | – | –
2 | CCCCC1(CCCC)CS(=O)(=O)c2ccc(N(C)C)cc2C(c2cccc(NC(=S)CCCCC[N+]34CCC(CC3)CC4)c2)N1.[Br-] (stereo not shown) [EXAMPLE 1, 1-{5-[3-(3,3-dibutyl-7-dimethylamino-1,1-dioxo-2,3,4,5-tetrahydro-1,4-benzothiazepine-5-yl)phenylthiocarbamoyl]pentyl}-1-azoniabicyclo[2.2.2]octane bromide] | 49% | – | – | – | – | – | – | – | 68.4% | 61 ± 4 IU/L | 182 ± 42 IU/L | 603 ± 78 IU/L | 33 µM | – | – | –
3 | CCCCC1(CCCC)CS(=O)(=O)c2ccc(N(C)C)cc2C(c2cccc(NC(=S)Nc3ccc(C[N+]4(Cc5ccccc5)CCC(O)CC4)cc3)c2)N1.[Br-] (stereo not shown) [EXAMPLE 3605] | 28% | – | – | – | – | – | – | – | – | – | – | – | – | 258 ± 219 IU/L | 487 ± 382 IU/L | 1489 ± 533 IU/L
4 | CCCCC1(CCCC)CS(=O)(=O)c2ccc(N(C)C)cc2C(c2cccc(NC(=S)Nc3ccc(C[N+]45CCC(c6ccccc6)(CC4)CC5)cc3)c2)N1.[Br-] (racemic) [EXAMPLE 3696] | 25% | 191 ± 21 IU/L | 325 ± 87 IU/L | 1209 ± 125 IU/L | 119 ± 2 mg/dL | 115 ± 3 mg/dL | 3 (3) mg/dL | 3 (3) | – | – | – | – | – | – | – | –
5 | CCCCC1(CCCC)CS(=O)(=O)c2ccc(N(C)C)cc2C(c2cccc(NC(=S)Nc3ccc(C[n+]4ccccc4CCC)cc3)c2)N1.[Br-] (stereo not shown) [EXAMPLE 5408] | 43% | 197 ± 45 IU/L | 198 ± 65 IU/L | 1005 ± 102 IU/L | 128 ± 4 mg/dL | 122 ± 4 mg/dL | 6 mg/dL | 5 | – | – | – | – | – | – | – | –
